Cytotoxicity data for 103 molecules are collected here from ChEMBL document CHEMBL3507680, “University of Dundee, Gates Library screen for HepG2 cell viability”.

This series is described as follows: Human HepG2 cell viability assay in 384 well format. As to conditions: HepG2 cells, read-out: Inhibition. The class given is toxicity, cell-based. More on the design: dose 125 nL, time 70.5 hour; concentration not given beside the values.
In the case of `CC(C)Cn1ccnc1CNC(=O)NC(C)(C)c1nccs1`, the cytotoxicity at 70.5 h worked out at 19.7%.
As for `Cc1ccccc1C(C)NC(=O)CN1CCN(Cc2ccc(Cl)s2)CC1` (stereo not drawn), the cytotoxicity at 70.5 h was 17%.
For the molecule `COc1ccccc1C(C)NC(=O)N1CCN(Cc2ccc(Br)s2)CC1` (stereo not drawn), the cytotoxicity at 70.5 h came to 5.11%.
On to `COc1cc(OC)cc(-c2noc(CN)n2)c1`, for which the cytotoxicity at 70.5 h was found to be 45.5%.
With `Cc1cccc(NC(=O)CNC(=O)c2ccccc2F)c1`, the cytotoxicity at 70.5 h stood at 4.02%.
Regarding `CCOc1ccccc1NC(=O)NCc1ccoc1`, the cytotoxicity at 70.5 h is -1.18%.
Turning to `CN(c1ncccc1C#N)C1CCN(CCc2ccccn2)CC1`, the cytotoxicity at 70.5 h was found to be 13.7%.
In the case of `CNS(=O)(=O)c1cccc(S(=O)(=O)Nc2ncc(C)s2)c1`, the cytotoxicity at 70.5 h came to 3.06%.
Next, `NC(=O)CS(=O)(=O)Cc1ccc(OCc2ccc(F)cc2)cc1`: -2.96%; `CS(=O)(=O)Cc1ccc(OCc2ccc(F)cc2)cc1`: 19.8%.
Take `Cc1ccc(CC(=O)NCC(O)c2cccc(C(F)(F)F)c2)cn1` (stereo not drawn): the cytotoxicity at 70.5 h was -0.0497%.
As to `O=C(CC1CCCCC1)N1CCC(O)(C(F)(F)F)C1` (stereo not drawn), the cytotoxicity at 70.5 h worked out at 1.99%.
Consider `CN(C)Cc1ccc(C(N)=O)cc1NC(=O)c1cccc(C#N)c1`, for which the cytotoxicity at 70.5 h is -4.53%.
On to `CN(C)C(=O)Cc1ccc(NCc2nccn2C)cc1`, for which the cytotoxicity at 70.5 h is -2.12%.
As for `O=C(NCc1cc(F)ccc1F)Nc1ccn(CC(F)F)n1`, the cytotoxicity at 70.5 h came to 0.0811%.
As for `CCCn1cnc(S(=O)(=O)Nc2cccnc2-n2cccn2)c1`, the cytotoxicity at 70.5 h was found to be 19.8%.
Next, `COCCC(=O)N1CCC(NC(=O)c2cscc2C)CC1`: 6.09%; `COCC(O)CN1CCC(NC(=O)c2cscc2C)CC1` (stereo not drawn): 3.56%; `CCOc1ccc(NC(=O)c2cc(C)c(C)o2)cc1CO`: 26.7%.
On to `O=C(NCc1cccnc1)Nc1ccn(CC(F)F)n1`, for which the cytotoxicity at 70.5 h was -3.22%.
For `N#CCCN(Cc1ccco1)C(=O)COC1CCCCC1`, the cytotoxicity at 70.5 h was determined as 21.5%.
`O=C1C(Sc2cnn[nH]2)CCCN1c1ccccc1F` (stereo not drawn): the cytotoxicity at 70.5 h was 19%.
For `O=C(NCc1cc(-c2ccccc2)no1)NCC1CCCO1` (stereo not drawn), the cytotoxicity at 70.5 h was -0.266%.
As for `O=S(=O)(Cc1cc(-c2ccccc2)no1)CC1CCCO1` (stereo not drawn), the cytotoxicity at 70.5 h is -8.25%.
As to `CCCN(Cc1cnn(C)c1)S(=O)(=O)c1ccc(F)c(C#N)c1`, the cytotoxicity at 70.5 h was -7.37%.
Turning to `COCC(=O)N1CCN(Cn2nc(C)c(Br)c2C)CC1`, the cytotoxicity at 70.5 h was -2.69%.
On to `CC(C)CN(CC(O)c1ccccc1)C(=O)Nc1nccs1` (stereo not drawn), for which the cytotoxicity at 70.5 h is -6.61%.
Take `CCCN(Cc1cnn(C)c1)S(=O)(=O)c1cc(C)cc(F)c1`: the cytotoxicity at 70.5 h came to 23.3%.
Regarding `CCOc1cccc(NC(=O)c2cc(C)on2)n1`, the cytotoxicity at 70.5 h was -5.47%.
The value for `Cc1cc(CSCc2csc(CS(C)(=O)=O)n2)no1` was 2%; that for `CC(C)C(NCc1ccc(Cn2cncn2)cc1)c1ccccc1` (stereo not drawn) was -3.88%; that for `CCOCCOc1ccc(S(=O)(=O)N2CCc3c(nc[nH]c3=O)C2)cc1` was 1.59%.
Take `CNC(=O)CN1CCC(CN(C)Cc2ccc(C)cc2C)CC1`: the cytotoxicity at 70.5 h is 27.9%.
Turning to `COC(=O)COc1c(F)cc(Br)cc1C(C)=O`, the cytotoxicity at 70.5 h is -2.7%.
The value for `Cc1ccc(S(N)(=O)=O)cc1C(=O)NC1CCCN(C)C1` (stereo not drawn) was 1.47%; that for `CN(CC(=O)NS(=O)(=O)c1cccs1)Cc1ccccc1` was 7.04%.
In the case of `CN(CC(=O)NS(=O)(=O)c1ccsc1)Cc1ccccc1`, the cytotoxicity at 70.5 h was -6.37%.
Regarding `CN(C)C(=O)C1SCCc2ccccc21` (stereo not drawn), the cytotoxicity at 70.5 h was -6.79%.
In the case of `Cc1cnc(CNC(=O)NC2CCCN(c3ccccc3F)C2)s1` (stereo not drawn), the cytotoxicity at 70.5 h is -3.86%.
As to `Cc1cccc(C(=O)NCCNS(=O)(=O)c2cccs2)c1C`, the cytotoxicity at 70.5 h was -5.88%.
The value for `CCOCCCC(=O)NCc1ccnc(N2CCN(C)CC2)c1` was 4.8%; that for `CCOc1ccc(-c2nc(CN(C)Cc3c(C)noc3C)cs2)cc1` was 11.3%.
As to `O=C(Cn1cc(C2CC2)nn1)N(Cc1ccco1)CC1CCCO1` (stereo not drawn), the cytotoxicity at 70.5 h was 10.2%.
`Cc1ccccc1C(NC(=O)NCC1(O)CCC1)C1CC1` (stereo not drawn): the cytotoxicity at 70.5 h is 5.34%.
Take `COc1cc(C(=O)NC(C)c2cccs2)cc2c1OCCO2` (stereo not drawn): the cytotoxicity at 70.5 h is -9.64%.
In the case of `CNC(=O)c1cc(NC(=O)NC2CC2)ccc1F`, the cytotoxicity at 70.5 h is -8.55%.
For `Cc1cc(C)n(CC(C)NC(=O)NCc2c(C)cc(C)[nH]c2=O)n1` (stereo not drawn), the cytotoxicity at 70.5 h stood at 14.3%.
The value for `CCC(NC(=O)c1cc(OC)c2c(c1)OCCO2)c1cccs1` (stereo not drawn) was -8.09%; that for `COc1ccc2c(c1)NC(=O)C2OC(=O)CC(C)(C)C` (stereo not drawn) was -9.54%; that for `C=C(C)CN1CCC(NC(=O)Nc2ccc(F)c(C(=O)NC)c2)CC1` was 21.9%.
Turning to `CC(NC(=O)NCC(C)(C)C(N)=O)c1nc(-c2ccccc2)cs1` (stereo not drawn), the cytotoxicity at 70.5 h was -5.18%.
The value for `O=C(CCc1cccs1)Nc1ccnn1C1CCS(=O)(=O)C1` (stereo not drawn) was -1.32%; that for `Cc1nc(C)c(CNC(=O)N2CCN(c3ccc(Cl)cn3)CC2)s1` was -3.03%.
The value for `Cc1cc(CNC(=O)N2CCN(c3ccc(Cl)cn3)CC2)c(C)o1` was 18.2%; that for `Cc1nc(CNC(=O)N2CCN(c3ccc(Cl)cn3)CC2)sc1C` was -3.28%; that for `COc1c(Cl)cccc1NCc1csc(NC(C)=O)n1` was 3.58%.
On to `O=S(=O)(Cc1ccon1)N1CCN(c2ccncc2Cl)CC1`, for which the cytotoxicity at 70.5 h was -11.7%.
`O=C(NCC1(O)CCC1)NC(c1cc(F)ccc1F)C1CC1` (stereo not drawn): the cytotoxicity at 70.5 h was -6.17%.
For the molecule `Cc1cc(N2CCCCC2)c(C#N)c(C)n1`, the cytotoxicity at 70.5 h is -5.91%.
Regarding `CCOc1c(F)cccc1C(=O)N(CC)C(C)c1cccnc1` (stereo not drawn), the cytotoxicity at 70.5 h is -6.68%.
For the molecule `CN(CCCNC(=O)C1CCc2cn[nH]c2C1)c1ccc(F)cc1` (stereo not drawn), the cytotoxicity at 70.5 h was 16.9%.
Take `N#CC1(NC(=O)CN2CCc3c(ncn3C3CC3)C2)CCCC1`: the cytotoxicity at 70.5 h was -2.71%.
With `CC(C)Cc1noc(CC2CCS(=O)(=O)C2)n1` (stereo not drawn), the cytotoxicity at 70.5 h was -6.88%.
Regarding `Cc1nnc(CN(C)CC(=O)N2CCCN(C3CCCC3)CC2)n1C`, the cytotoxicity at 70.5 h was -6.96%.
As for `COC(=O)CSCc1noc(-c2ccc(C)cc2)n1`, the cytotoxicity at 70.5 h was 0.48%.
As to `CSCCC(NC(N)=O)C(=O)Nc1ccc(-n2cccn2)nc1` (stereo not drawn), the cytotoxicity at 70.5 h is -7.37%.
Consider `O=C(C1CCCCN1Cc1nccn1CC(F)(F)F)N1CCCC1` (stereo not drawn), for which the cytotoxicity at 70.5 h is -2.02%.
For `CN(Cc1ccc2c(c1)OCCO2)c1ncc(S(N)(=O)=O)s1`, the cytotoxicity at 70.5 h came out at 8.35%.
For `CCN(Cc1ccc2c(c1)OCO2)c1ncc(S(N)(=O)=O)s1`, the cytotoxicity at 70.5 h was 1.59%.
Next, `CC(C)c1nc2n(n1)CC(NCc1cc3ccccc3o1)CC2` (stereo not drawn): 12.7%; `CN(C)c1ccc(C(=O)N(Cc2ccncc2)CC2CCCO2)nn1` (stereo not drawn): -4.51%; `O=C(Nc1cccnc1)NC1CCN(c2ccccc2OC(F)F)C1` (stereo not drawn): -3.6%.
The value for `CC(C)Cc1noc(CN(C)C2CCS(=O)(=O)C2)n1` (stereo not drawn) was -3.8%; that for `COc1ccc(NC(=O)N2CCC(CSC)C2)cc1C` (stereo not drawn) was 2.45%.
For the molecule `COC(CNC(=O)c1ccc(NC(C)=O)cc1)c1cccc(Cl)c1` (stereo not drawn), the cytotoxicity at 70.5 h was -5.6%.
Take `NC(=O)C1CCCN1Cc1nccn1CC(F)(F)F` (stereo not drawn): the cytotoxicity at 70.5 h turned out to be 10.6%.
In the case of `O=C(c1coc(-c2ccccc2)n1)N1CCS(=O)(=O)CC1`, the cytotoxicity at 70.5 h is -3.26%.
For `O=C(c1coc(-c2ccccc2)n1)N1CCCC1`, the cytotoxicity at 70.5 h was 3.66%.
Turning to `O=C(c1coc(-c2ccccc2)n1)N1CCCCC1`, the cytotoxicity at 70.5 h is -10.3%.
As for `Cc1c(C(=O)NC2CCCOC2)nnn1-c1ccc(Cl)cc1F` (stereo not drawn), the cytotoxicity at 70.5 h is -0.806%.
With `CN(Cc1nc(C(C)(C)C)no1)C1CCS(=O)(=O)C1` (stereo not drawn), the cytotoxicity at 70.5 h came out at 6.01%.
The value for `CC(CNC(=O)c1cccnc1)Oc1ccc(F)cc1` (stereo not drawn) was 8.38%; that for `CC(NC(=O)NCCC1=CCCCC1)c1nncn1C` (stereo not drawn) was 35.8%; that for `CC(C)(C)c1noc(CN2CCCc3cc(OC(F)(F)F)ccc32)n1` was -2.73%.
For `NC(=O)NC(=O)C(c1ccccc1)N1CCN(Cc2ccsc2)CC1` (stereo not drawn), the cytotoxicity at 70.5 h was -7.31%.
With `COc1ccc(OCCN(C)S(=O)(=O)c2cnn(C)c2)cc1`, the cytotoxicity at 70.5 h is -6.09%.
The value for `O=C(NCC1CCC1)c1ccnc(-n2ccnc2)c1` was 1.75%; that for `O=C(NC1CCc2cc(Cl)ccc21)C1CCN(C(=O)C2CC2)CC1` (stereo not drawn) was -4.11%; that for `Cc1cc(NCCC(=O)NC2CCCCC2)nc(-c2ccncc2)n1` was 24.9%.
As for `CN1CCOC(CNC(=O)C2(c3cccc(Cl)c3)CC2)C1` (stereo not drawn), the cytotoxicity at 70.5 h is -5.99%.
As for `Cc1cccc(C2(C(=O)NCC3CN(C)CCO3)CC2)c1` (stereo not drawn), the cytotoxicity at 70.5 h worked out at 2.72%.
On to `Cc1cc(NCCC(=O)NC(C)C)nc(-c2ccncc2)n1`, for which the cytotoxicity at 70.5 h was found to be 3.03%.
For the molecule `CN1CCOC(CNC(=O)C2(c3ccccc3)CCC2)C1` (stereo not drawn), the cytotoxicity at 70.5 h was -5.1%.
Regarding `N#Cc1cccc(OCc2ccoc2C(=O)N2CCCCC2)c1`, the cytotoxicity at 70.5 h came to 3.19%.
Turning to `Cc1cc(C)cc(C(=O)NCCS(=O)(=O)N2CCSCC2)c1`, the cytotoxicity at 70.5 h amounted to 20.5%.
As to `COc1ccccc1OCC(=O)Nc1ncccc1C`, the cytotoxicity at 70.5 h was -3.19%.
As for `COCCN(Cc1ccc(F)cc1Cl)C(=O)c1cc(C)no1`, the cytotoxicity at 70.5 h is -1.27%.
The value for `Cc1ccn(-c2ccccc2NCc2cccnc2)n1` was 5.47%; that for `Cc1ccc(S(C)(=O)=O)cc1C(=O)N(C)Cc1ccco1` was -3.41%; that for `CCc1nc(C)c(C(=O)N2CCCC(c3noc(C)n3)C2)s1` (stereo not drawn) was -6.51%.
For the molecule `CC(=O)N1CCN(C(=O)C(C)OCC(F)(F)F)CC1` (stereo not drawn), the cytotoxicity at 70.5 h turned out to be 33.2%.
As for `NC(C(=O)N1CCSc2ccccc2C1)c1ccccc1` (stereo not drawn), the cytotoxicity at 70.5 h came out at 2.56%.
As to `CC(C)(C)c1cc(=O)[nH]c(C2(N)CCCCC2)n1`, the cytotoxicity at 70.5 h was -4.98%.
